Legend:
Format in all cases: cell-based
[1] = biological target: T1, BRAF V600E (Homo sapiens, UniProt P15056, V600E); assay: BRAF HiBiT degradation assay, C-terminal HiBiT-tagged BRAF V600E A375 cells (clone 1F10), Nano-Glo HiBiT Lytic assay; details: A375 (BRAF V600E, Class 1); for DC50: DC50 at 50% degradation; for Dmax: A-375, observed Dmax, % protein degraded relative to DMSO control
T1 construct: endogenous C-terminal HiBiT fusion tag on BRAF V600E allele; endogenous in cells; host or cells: A375 clone 1F10 (CRISPR-Cas9 knock-in of the HiBiT tag; parental A375 from ATCC)
T1 sequence (P15056 whole entry V600E, the tested form may be a part): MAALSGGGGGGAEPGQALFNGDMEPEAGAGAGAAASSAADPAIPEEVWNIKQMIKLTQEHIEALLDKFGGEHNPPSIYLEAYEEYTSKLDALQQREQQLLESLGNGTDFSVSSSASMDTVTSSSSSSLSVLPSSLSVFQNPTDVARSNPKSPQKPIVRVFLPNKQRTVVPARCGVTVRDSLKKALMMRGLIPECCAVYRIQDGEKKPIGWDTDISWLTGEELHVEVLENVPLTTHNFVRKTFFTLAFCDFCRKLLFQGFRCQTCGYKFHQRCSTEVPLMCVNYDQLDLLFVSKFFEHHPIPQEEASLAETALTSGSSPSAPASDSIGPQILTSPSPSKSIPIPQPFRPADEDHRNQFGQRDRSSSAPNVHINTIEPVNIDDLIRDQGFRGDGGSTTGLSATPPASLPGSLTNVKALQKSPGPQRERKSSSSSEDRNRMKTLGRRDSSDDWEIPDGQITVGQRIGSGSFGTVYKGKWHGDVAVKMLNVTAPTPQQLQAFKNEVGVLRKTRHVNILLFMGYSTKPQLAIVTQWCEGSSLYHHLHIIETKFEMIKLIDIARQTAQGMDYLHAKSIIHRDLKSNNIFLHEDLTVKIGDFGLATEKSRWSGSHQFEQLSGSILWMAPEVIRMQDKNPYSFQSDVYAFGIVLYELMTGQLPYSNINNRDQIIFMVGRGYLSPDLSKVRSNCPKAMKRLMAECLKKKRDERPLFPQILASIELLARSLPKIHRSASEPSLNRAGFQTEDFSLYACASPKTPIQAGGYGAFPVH
Procedure, shortened: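 Steps: seed HiBiT-tagged A375 clone 1F10 cells; incubate 24 h, 37 °C, 5% CO2; add compound (11 half-log points from 1 μM, 0.2% DMSO); lyse with HiBiT detection reagent plus LgBiT for 10 min; read luminescence; fit % protein remaining against concentration.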

[2] = biological target: T2, BRAF G466V (Homo sapiens, UniProt P15056, G466V); assay: BRAF HiBiT degradation assay, C-terminal HiBiT-tagged BRAF G466V overexpressed in HCT-116 BRAF−/− cells (clone 8), Nano-Glo HiBiT Lytic assay; details: BRAF G466V (Class 3), HCT-116 BRAF−/− cells; for DC50: DC50 at 50% degradation; for Dmax: observed Dmax relative to DMSO control
T2 construct: Horizon Discovery (HCT-116 BRAF−/− cells); host or cells: HCT-116 BRAF−/− cells, clone 8, lentiviral transduction
T2 sequence (P15056 whole entry G466V): as the sequence (P15056 whole entry V600E, the tested form may be a part) above, with G466V, E600V counted along it
Procedure, shortened: (§1)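 We quantified degradation of the C-terminally HiBiT-tagged, overexpressed mutant by lytic luminescence, normalizing to DMSO-treated cells with wild-type HCT-116 background subtracted. Dose series ran from 1 μM to 0.01 nM at 0.2% DMSO. Observed Dmax is % degraded at maximal effect.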

[3] = biological target: T3, BRAF G469A (Homo sapiens, UniProt P15056, G469A); assay: BRAF HiBiT degradation assay, C-terminal HiBiT-tagged BRAF G469A overexpressed in HCT-116 BRAF−/− cells (clone 34), Nano-Glo HiBiT Lytic assay; details: BRAF G469A (Class 2), HCT-116 BRAF−/− cells; for DC50: DC50 at 50% degradation; for Dmax: observed Dmax relative to DMSO control
T3 construct: Horizon Discovery (HCT-116 BRAF−/− cells); host or cells: HCT-116 BRAF−/− cells, clone 34, lentiviral transduction
T3 sequence (P15056 whole entry G469A): as the sequence (P15056 whole entry V600E, the tested form may be a part) above, with G469A, E600V counted along it
Procedure, shortened: as §1

[4] = biological target: T4, BRAF D594G (Homo sapiens, UniProt P15056, D594G); assay: BRAF HiBiT degradation assay, C-terminal HiBiT-tagged BRAF D594G overexpressed in HCT-116 BRAF−/− cells (clone 63), Nano-Glo HiBiT Lytic assay; details: BRAF D594G (Class 3), HCT-116 BRAF−/− cells; for DC50: DC50 at 50% degradation; for Dmax: observed Dmax relative to DMSO control
T4 construct: Horizon Discovery (HCT-116 BRAF−/− cells); host or cells: HCT-116 BRAF−/− cells, clone 63, lentiviral transduction
T4 sequence (P15056 whole entry D594G): as the sequence (P15056 whole entry V600E, the tested form may be a part) above, with D594G, E600V counted along it
Procedure, shortened: as §1

DC50 [1] [nM]	Dmax [1] [%]	DC50 [2] [nM]	Dmax [2] [%]	DC50 [3] [nM]	Dmax [3] [%]	DC50 [4] [nM]	Dmax [4] [%]	SMILES
< 10	> 70	< 10	> 70	< 10	> 70	< 10	30 to 70	O=C1CCC(c2ccc(N3CCC(CN4CCN(c5ccc(-n6cc(-c7cc(Cl)cc(NS(=O)(=O)N8CC(F)C8)c7F)c(-c7ccncc7)n6)cc5)CC4)CC3)nc2)C(=O)N1 (racemic) [Compound 332, Rac-N-{5-chloro-3-[1-(4-{4-[(1-{5-[(3R)-2,6-dioxopiperidin-3-yl]pyridin-2-yl}piperidin-4-yl)methyl]piperazin-1-yl}phenyl)-3-(pyridin-4-yl)-1H-pyrazol-4-yl]-2-fluorophenyl}-3-fluoroazetidine-1-sulfonamide]
< 10	> 70	< 10	> 70	10 to 50	30 to 70	< 10	30 to 70	O=C1CCC(c2ccc(N3CCC(CN4CCN(c5ccc(-n6cc(-c7cc(Cl)cc(NS(=O)(=O)N8CC(F)C8)c7F)c(-c7ccncc7)n6)c(F)c5)CC4)CC3)nc2)C(=O)N1 (racemic) [Compound 337, Rac-N-{5-chloro-3-[1-(4-{4-[(1-{5-[(3R)-2,6-dioxopiperidin-3-yl]pyridin-2-yl}piperidin-4-yl)methyl]piperazin-1-yl}-2-fluorophenyl)-3-(pyridin-4-yl)-1H-pyrazol-4-yl]-2-fluorophenyl}-3-fluoroazetidine-1-sulfonamide]
< 10	> 70	> 500	30 to 70	> 500	< 30	> 500	< 30	O=C1CCC(c2ccc(N3CCC(CN4CCCN(c5ccc(-n6cc(-c7cc(Cl)cc(NS(=O)(=O)N8CCCC8)c7F)c(-c7ccncc7)n6)c(F)c5)CC4)CC3)nc2)C(=O)N1 (racemic) [Compound 345, Rac-N-{5-chloro-3-[1-(4-{4-[(1-{5-[(3R)-2,6-dioxopiperidin-3-yl]pyridin-2-yl}piperidin-4-yl)methyl]-1,4-diazepan-1-yl}-2-fluorophenyl)-3-(pyridin-4-yl)-1H-pyrazol-4-yl]-2-fluorophenyl}pyrrolidine-1-sulfonamide]
< 10	> 70	< 10	> 70	10 to 50	30 to 70	< 10	> 70	O=C1CCC(c2ccc(N3CCC(CN4CCN(c5ccc(-n6cc(-c7cc(Cl)cc(NS(=O)(=O)N8CCCC8)c7F)c(-c7ccncc7)n6)cc5)CC4)CC3)c(F)c2)C(=O)N1 (racemic) [Compound 347, Rac-N-{5-chloro-3-[1-(4-{4-[(1-{4-[(3R)-2,6-dioxopiperidin-3-yl]-2-fluorophenyl}piperidin-4-yl)methyl]piperazin-1-yl}phenyl)-3-(pyridin-4-yl)-1H-pyrazol-4-yl]-2-fluorophenyl}pyrrolidine-1-sulfonamide]
< 10	> 70	< 10	> 70	10 to 50	30 to 70	< 10	30 to 70	O=C1CCC(c2ccc(N3CCC(CN4CCN(c5ccc(-n6cc(-c7cc(Cl)cc(NS(=O)(=O)N8CCCC8)c7F)c(-c7ccncc7)n6)cc5)CC4)CC3)cc2F)C(=O)N1 (racemic) [Compound 348, Rac-N-{5-chloro-3-[1-(4-{4-[(1-{4-[(3R)-2,6-dioxopiperidin-3-yl]-3-fluorophenyl}piperidin-4-yl)methyl]piperazin-1-yl}phenyl)-3-(pyridin-4-yl)-1H-pyrazol-4-yl]-2-fluorophenyl}pyrrolidine-1-sulfonamide]
< 10	> 70	< 10	> 70	< 10	> 70	< 10	> 70	O=C1CCC(c2ccc(N3CCC(CN4CCN(c5ccc(-n6cc(-c7cc(C(F)F)cc(NS(=O)(=O)N8CCCC8)c7F)c(-c7ccncc7)n6)cc5)CC4)CC3)nc2)C(=O)N1 (racemic) [Compound 350, Rac-N-[5-(difluoromethyl)-3-[1-(4-{4-[(1-{5-[(3R)-2,6-dioxopiperidin-3-yl]pyridin-2-yl}piperidin-4-yl)methyl]piperazin-1-yl}phenyl)-3-(pyridin-4-yl)-1H-pyrazol-4-yl]-2-fluorophenyl]pyrrolidine-1-sulfonamide]
< 10	> 70	< 10	> 70	< 10	> 70	< 10	30 to 70	O=C1CCC(c2ccc(N3CCC(CN4CCN(c5ccc(-n6cc(-c7cc(Cl)cc(NS(=O)(=O)N8CCCC8)c7F)c(-c7ccncc7)n6)cn5)CC4)CC3)nc2)C(=O)N1 (racemic) [Compound 352, Rac-N-{5-chloro-3-[1-(6-{4-[(1-{5-[(3R)-2,6-dioxopiperidin-3-yl]pyridin-2-yl}piperidin-4-yl)methyl]piperazin-1-yl}pyridin-3-yl)-3-(pyridin-4-yl)-1H-pyrazol-4-yl]-2-fluorophenyl}pyrrolidine-1-sulfonamide]
< 10	> 70	< 10	> 70	10 to 50	30 to 70	< 10	30 to 70	O=C1CCC(c2ccc(N3CCC(CN4CCN(c5cc(F)c(-n6cc(-c7cc(Cl)cc(NS(=O)(=O)N8CCCC8)c7F)c(-c7ccncc7)n6)cc5F)CC4)CC3)nc2)C(=O)N1 (racemic) [Compound 354, Rac-N-{5-chloro-3-[1-(4-{4-[(1-{5-[(3R)-2,6-dioxopiperidin-3-yl]pyridin-2-yl}piperidin-4-yl)methyl]piperazin-1-yl}-2,5-difluorophenyl)-3-(pyridin-4-yl)-1H-pyrazol-4-yl]-2-fluorophenyl}pyrrolidine-1-sulfonamide]
< 10	> 70	< 10	> 70	10 to 50	> 70	< 10	30 to 70	O=C1CCC(c2ccc(N3CCC(CN4CCN(c5ccc(-n6cc(-c7cc(C(F)F)cc(NS(=O)(=O)N8CCCC8)c7F)c(-c7ccncc7)n6)c(F)c5)CC4)CC3)nc2)C(=O)N1 (racemic) [Compound 357, Rac-N-[5-(difluoromethyl)-3-[1-(4-{4-[(1-{5-[(3R)-2,6-dioxopiperidin-3-yl]pyridin-2-yl}piperidin-4-yl)methyl]piperazin-1-yl}-2-fluorophenyl)-3-(pyridin-4-yl)-1H-pyrazol-4-yl]-2-fluorophenyl]pyrrolidine-1-sulfonamide]
< 10	> 70	< 10	> 70	< 10	> 70	< 10	> 70	O=C1CCC(c2ccc(N3CCC(CN4CCN(c5cnc(-n6cc(-c7cc(Cl)cc(NS(=O)(=O)N8CCCC8)c7F)c(-c7ccncc7)n6)nc5)CC4)CC3)nc2)C(=O)N1 (racemic) [Compound 359, Rac-N-{5-chloro-3-[1-(5-{4-[(1-{5-[(3R)-2,6-dioxopiperidin-3-yl]pyridin-2-yl}piperidin-4-yl)methyl]piperazin-1-yl}pyrimidin-2-yl)-3-(pyridin-4-yl)-1H-pyrazol-4-yl]-2-fluorophenyl}pyrrolidine-1-sulfonamide]
< 10	> 70	< 10	> 70	< 10	> 70	< 10	> 70	O=C1CCC(c2ccc(N3CCC(CN4CCN(c5ccc(-n6cc(-c7cc(Cl)cc(NS(=O)(=O)N8CCCC8)c7F)c(-c7ccncc7)n6)cc5F)CC4)CC3)nc2)C(=O)N1 (racemic) [Compound 363, Rac-N-{5-chloro-3-[1-(4-{4-[(1-{5-[(3R)-2,6-dioxopiperidin-3-yl]pyridin-2-yl}piperidin-4-yl)methyl]piperazin-1-yl}-3-fluorophenyl)-3-(pyridin-4-yl)-1H-pyrazol-4-yl]-2-fluorophenyl}pyrrolidine-1-sulfonamide]
